The text below walks through data of patent publication US20190092720A1, “FUNCTIONALIZED BENZAMIDE DERIVATIVES AS ANTIVIRAL AGENTS AGAINST HBV INFECTION” (BARUCH S. BLUMBERG INSTITUTE, priority 2012, published 2019).

What is called EC50 is the concentration giving half of the maximal effect. A high value points to a less potent agent.

The subject of test [1] is HBV replication in HepDES19 cells. Briefly: Antiviral activity in HepDES19 cells (core-associated HBV DNA, Southern blot). The class given is cell-based, Hepatitis B virus (HBV). The following applies: Hepatitis B virus, HepDES19, 144 h, concentration that reduces core-associated HBV DNA by 50%; 6 days; serial dilution 10 μM to 0.018 μM. An excerpt: Determination of antiviral activity of compounds of the disclosure, as presented in Table 1, in human hepatoma-derived cell lines: To further confirm the antiviral activity of the compounds of the disclosure against HBV in human hepatocyte-derived cells, HepDES19 cells, a human hepatoma cell line supporting HBV replication in a tetracycline inducible manner (Guo et al., 2007), seeded into 12-well plates at a density of 5×10^5 cells per well and cultured in DMEM/F12 media with 10% fetal bovine serum and 1 μg/ml tetracycline. Two days after seeding, the cells were mock-treated or treated with a serial dilution of compounds of the disclosure, ranging from 10 μM to 0.018 μM, for 6 days in the absence of tetracycline. Upon the completion of treatment, cells were lysed by adding into each well of the 12-well plates 0.5 ml of lysis buffer containing 10 mM Tris-HCl (pH 8.0), 1 mM EDTA, 1% NP40 and 2% sucrose and incubating at 37° C. for 10 minutes. Cell debris and nuclei were removed by centrifugation and the supernatant was mixed with 130 μl of 35% polyethylene glycol (PEG) 8000 containing 1.5 M NaCl. After 1 hour incubation in ice, viral nucleocapsids were pelleted by centrifugation at 6,000×g for 5 min at 4° C., followed by 1 hour digestion at 37° C. in 400 μl of digestion buffer containing 0.5 mg/ml pronase (Calbiochem), 0.5% SDS, 150 mM NaCl, 25 mM Tris-HCl (pH 8.0) and 10 mM EDTA. The digestion mixture was extracted twice with phenol and DNA was precipitated with ethanol, dissolved in TE buffer (10 mM Tris-HCl, pH 8.0; 0.1 mM EDTA). One half of the DNA sample from each well was resolved by electrophoresis into a 1.5% agarose gel. The gel was then subjected to denaturation in a solution containing 0.5 M NaOH and 1.5 M NaCl, followed by neutralization in a buffer containing 1 M Tris-HCl (pH7.4) and 1.5 M NaCl. DNA was then blotted onto Hybond-XL membrane (GE Health care) in 20×SSC buffer. The amounts of cytoplasmic HBV core-associated HBV DNA were determined by Southern blot hybridization and the antiviral efficacy of a compound was expressed as its concentration that reduce the amount of HBV DNA by 50% (EC50) or 90% (EC90).

A further test has as its system encapsidated pgRNA. Briefly: Encapsidated pgRNA by Northern blot in AML12HBV10 cells. In kind it is cell-based, Hepatitis B virus (HBV). The following applies: 2 days, FIG. 1 panel C. The method, then:
FIG. 1. Antiviral mechanism of the compounds of the present invention. AML12HBV10 cells were left untreated (NT) or treated with the indicated concentrations of the compounds of the disclosure Compound 6 and Compound 19, respectively, for 2 days. Bay-4109 (3 µM) or AT-61 (25 µM) served as positive controls. (A) Intracellular viral RNA was determined by Northern blot hybridization. Ribosomal RNA served as a loading control. (B) The total amounts of nucleocapsids were determined by a particle gel assay. (C) Encapsidated pgRNA were extracted and measured by Northern blot. (D) Nucleocapsid-associated HBV DNA was quantified by alkaline-treatment of nucleocapsids on the membrane following the particle gel assay and hybridized with a HBV-specific riboprobe. (E) HBV DNA replication intermediates were extracted and determined by Southern blot hybridizations.
Determination of encapsidated pgRNA: AML12HBV10 cells were lysed by addition of 600 μl of lysis buffer (50 mM Tris-HCl [pH 7.5], 1 mM EDTA, 150 mM NaCl, 1% NP-40) into each well of 12-well plates. The nuclei were removed by centrifugation at 5,000 g for 10 minutes. One-half of the sample was mixed with 6 U of micrococcal nuclease (Pharmacia) and 15 μl of 100 mM CaCl2 and incubated for 15 minutes at 37° C. to digest free nucleic acids. The reaction was stopped with 6 μl of 0.5 M EDTA, and capsids were precipitated by adding 125 μl of 35% polyethylene glycol 8000 in 1.75 M NaCl to the reaction and incubating in ice for 30 minutes, followed by centrifugation at 6,000 g for 10 minutes at 4° C. Pellets were re-suspended in 50 μl of TNE buffer (10 mM Tris-HCl [pH 8], 100 mM NaCl, 1 mM EDTA). pgRNA was extracted by the addition of 1 ml of Trizol reagent. The encapsidated pgRNA were electrophoresed through a 2.2 M formaldehyde-1% agarose gel, transferred to a nylon membrane, and immobilized by UV cross-linking (Stratagene). Hybridization was performed with an alpha-^32P-UTP labeled riboprobe specific for plus strand of HBV genome.

Take `O=C(Nc1cccc(Cl)c1)c1scc2c1OCCO2` [Entry 6]: a half-maximal response in test [1] (EC50) required 13.5 µM. The “level of encapsidated pgRNA” value in the test with encapsidated pgRNA is given as “dose-dependently reduced”.
